Experiments:
[1] = target: T1, farnesoid X receptor (FXR) (Homo sapiens, UniProt Q96RI1); experiment: FXRE (hsp27 IR1) luciferase transactivation in HepG2 cells transfected with FXR and RXR; type: cell-based
T1 construct: gene NR1H4; pSG5-FXR; with RXR (pSG5-RXR cotransfected)
T1 sequence (Q96RI1 1-486): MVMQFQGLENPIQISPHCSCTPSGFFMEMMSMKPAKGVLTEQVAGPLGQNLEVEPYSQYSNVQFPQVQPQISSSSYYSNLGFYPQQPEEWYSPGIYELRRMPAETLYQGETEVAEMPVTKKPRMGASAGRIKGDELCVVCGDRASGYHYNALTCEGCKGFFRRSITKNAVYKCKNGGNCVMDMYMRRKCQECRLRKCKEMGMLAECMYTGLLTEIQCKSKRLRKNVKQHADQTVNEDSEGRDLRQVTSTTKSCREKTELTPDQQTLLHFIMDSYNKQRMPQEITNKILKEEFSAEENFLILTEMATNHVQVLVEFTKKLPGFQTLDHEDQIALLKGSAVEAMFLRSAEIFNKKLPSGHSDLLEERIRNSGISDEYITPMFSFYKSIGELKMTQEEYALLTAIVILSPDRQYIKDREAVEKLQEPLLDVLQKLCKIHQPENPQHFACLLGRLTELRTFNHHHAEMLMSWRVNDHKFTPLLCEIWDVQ
T1 sequence (P19793 1-462 partner): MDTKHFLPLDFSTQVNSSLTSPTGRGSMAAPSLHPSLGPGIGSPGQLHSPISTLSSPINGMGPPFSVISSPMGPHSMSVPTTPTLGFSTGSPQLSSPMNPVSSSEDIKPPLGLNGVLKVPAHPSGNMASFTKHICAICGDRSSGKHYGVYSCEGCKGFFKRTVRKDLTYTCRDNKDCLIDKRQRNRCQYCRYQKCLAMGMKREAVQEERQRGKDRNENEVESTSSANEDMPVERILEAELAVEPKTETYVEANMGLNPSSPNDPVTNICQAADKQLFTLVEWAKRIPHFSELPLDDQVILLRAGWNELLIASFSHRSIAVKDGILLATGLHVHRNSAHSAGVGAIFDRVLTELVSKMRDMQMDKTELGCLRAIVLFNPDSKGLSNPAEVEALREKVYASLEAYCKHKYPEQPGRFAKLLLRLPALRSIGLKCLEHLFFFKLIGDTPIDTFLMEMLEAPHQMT

[2] = target: T2, GPBAR1 (TGR5) (Homo sapiens, UniProt Q8TDU6); experiment: CRE-luciferase transactivation in HEK293T cells transfected with human GPBAR1; type: cell-based
T2 construct: pCMVSPORT6-human GPBAR1
T2 sequence (Q8TDU6 1-330): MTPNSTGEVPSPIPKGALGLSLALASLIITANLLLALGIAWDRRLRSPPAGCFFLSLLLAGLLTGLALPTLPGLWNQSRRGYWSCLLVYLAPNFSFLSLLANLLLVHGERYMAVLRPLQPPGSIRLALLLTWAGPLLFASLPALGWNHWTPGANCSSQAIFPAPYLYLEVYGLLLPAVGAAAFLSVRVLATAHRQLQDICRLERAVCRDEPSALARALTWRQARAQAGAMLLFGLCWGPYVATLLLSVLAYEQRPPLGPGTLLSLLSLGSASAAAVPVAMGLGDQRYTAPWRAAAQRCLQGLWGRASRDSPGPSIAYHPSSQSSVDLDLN

Question: How did the EC50 [1] turn out when `CC[C@H]1[C@@H](O)[C@@H]2[C@H](CC[C@]3(C)[C@@H]([C@H](C)CCO)CC[C@@H]23)[C@@]2(C)CC[C@@H](O)C[C@@H]12` [BAR502, 6α-ethyl-3α, 7α-dihydroxy-24-nor-5β-cholan-23-ol] was run?
Answer: 2 ± 0.2 µM

Question: What about the EC50 [2] of the same molecule?
Answer: 0.4 ± 0.1 µM

— article PMC4503431, “Impaired Itching Perception in Murine Models of Cholestasis Is Supported by Dysregulation of GPBAR1 Signaling” (PLoS ONE, 2015)
